Data set [1] relates to advanced solid tumor malignancies. Put plainly: Phase I study of ganetespib monotherapy in advanced solid tumor malignancies. The format is in vivo, patients. The following applies: ganetespib monotherapy 75 or 150 mg/m^2, Days 1 and 15 of 3-week cycle. As to the method: A total of 3 (three) cohorts are treated in this study. All patients are hospitalized for the duration of Cycle 1, Days 1 through 21.
(§1) In the first cohort (Cohort 1), patients with advanced solid tumor malignancies are treated with 75 mg/m^2 of ganetespib monotherapy. In the second cohort (Cohort 2), patients with advanced solid tumor malignancies are treated with 150 mg/m^2 of ganetespib monotherapy. In the third cohort (Cohort 3), patients with advanced NSCLC are treated with ganetespib (150 mg/m^2) in combination with docetaxel (75 mg/m^2). In the case of intolerability of the third cohort's combination regimen, in a fourth cohort (Cohort 4), patients with advanced NSCLC are treated with ganetespib (150 mg/m^2) in combination with docetaxel (60 mg/m^2).
Each cohort enrolls 3 to 6 patients, depending on toxicity and the inclusion of Cohort 4. A total of 9 patients are enrolled at the recommended combination dose level to better characterize the safety and PK profiles. Each cohort consists of a maximum of 6 evaluable patients, except for the recommended combination dose level, which enrolls a total of 9 patients. Patients who discontinue from the study for reasons other than DLT (dose-limiting toxicity) before completing Cycle 1 are replaced. For all cohorts, patients are hospitalized for the duration of Cycle 1, Days 1 through 21. […]

For data set [2], the system named is advanced non-small-cell lung cancer (NSCLC) of non-squamous histology. Put plainly: Phase I study of ganetespib in combination with docetaxel in advanced NSCLC. The format is in vivo, patients. Conditions: ganetespib 150 mg/m^2 in combination with docetaxel (75 or 60 mg/m^2). The procedure:
as §1
Patients with advanced NSCLC, excluding patients with squamous cell histology, are administered ganetespib and docetaxel in Cohort 3.
The purpose of this cohort is to explore the PK and tolerability of ganetespib in combination with docetaxel. Patients enrolled in this cohort receive ganetespib 150 mg/m^2 in combination with docetaxel 75 mg/m^2.
On Day 1 of each 3-week treatment cycle, ganetespib and docetaxel are administered as separate 1-hour intravenous infusions. Administration of ganetespib precedes the administration of docetaxel. There is a 1-hour “rest” period following the end of the ganetespib infusion and prior to docetaxel infusion.
On Day 15, patients receive 150 mg/m^2 single-agent ganetespib administered via a 1-hour intravenous infusion. […]

Turning to `CC(C)c1cc(-c2n[nH]c(=O)n2-c2ccc3c(ccn3C)c2)c(O)cc1O` [ganetespib], in data set [1], the efficacy entry is listed as “efficacious” and the safety profile result is “good safety profile”. The efficacy result in data set [2] is on record as “efficacious”.

Values taken from patent US20160120848A1, “SPECIFIC CANCER TREATMENT REGIMES WITH GANETESPIB” (SYNTA PHARMACEUTICALS CORP., priority 2013, published 2016).
